# Data: US8436004B2, “Bicycloaniline derivative” (MSD K.K., priority 2007, dated 2013)
# Counter-ions that a name gives are not always drawn.
# Assays:
# [1] = tested on: Human colon cancer cells WiDr; experiment: Tumor growth inhibitory effect, WiDr subcutaneous xenograft in nude rats; assay type: in vivo, F344/N Jcl-rnu nude rats; details: gemcitabine 5 mg/kg i.v. days 0, 7, 14, Example 1 15 mg/kg oral days 1, 8, 15, n=5
# Protocol: Pharmacological Test 4 (Tumor Growth Inhibitory Effect)
# Human colon cancer cells WiDr (obtained from ATCC) were implanted into the subcutaneous area of the back of F344/N Jcl-rnu nude rats. 12 days after the implantation, 5 mg/kg of gemcitabine (Gemzar, from Eli Lily) was intravenously administered to them; and after 24 hours, a test compound suspended in a solvent (0.5% methyl cellulose) was orally administered thereto. This was repeated once a week for 3 weeks. The tumor volume (0.5×major diameter×(minor diameter)^2) was measured on days 0, 3, 6, 10, 13, 17, 20, 24 and 27 (the first gemcitabine administration is on day 0). The relative tumor volume was calculated, based on the tumor volume on day 0, as 1. The tumor growth rate (% T/C) was obtained according to the formulae mentioned below.
# In case where the tumor volume change from day 0 in the test compound administration group is more than 0 (>0): % T/C=(tumor volume change in the test compound group on days 3, 6, 10, 13, 17, 20, 24 and 27/tumor volume change in the control group on days 3, 6, 10, 13, 17, 20, 24 and 27)×100. In case where the tumor volume change from day 0 in the test compound administration group is less than 0 (<0): % T/C=(tumor volume change in the test compound group on days 3, 6, 10, 13, 17, 20, 24 and 27/tumor volume […] in the test compound group on day 0)×100.
# Gemcitabine was administered on days 0, 7 and 14. The compound of Example 1 was administered on days 1, 8 and 15.
# [2] = tested on: Human colon cancer cells (WiDr); experiment: Checkpoint-escape effect in gemcitabine-treated WiDr cells (phosphorylated histone H3-positive cells); assay type: cell-based; details: gemcitabine 100 nM 24 hours, then test compound + nocodazole 8 hours
# Source text: Pharmacological Test 3 (Method of Determining Drug Potency with Cells (Checkpoint-Escape Effect))
# Fetal bovine serum (FBS) was obtained from Morgate; a medium of DMEM was from Invitrogen; gemcitabine was from Nippon Eli Lilly; nocodazole and 4′,6-diamidino-2-phenylindole were from Sigma; rabbit anti-phosphorylated histone H3 antibody was from Upstate; and fluorescence-labeled (Alexa Fluor 488) anti-rabbit IgG antibody was from Molecular Probe.
# Human colon cancer cells (WiDr) were obtained from American Type Culture Collection (ATCC).
# The cells were suspended in a medium of 10% FBS-added DMEM, and the cell suspension was applied to a poly-D-lysine-coated 96-well plastic plate (bought from Becton Dickinson) in an amount of 2000 cells/100 μL/well, in which the cells were incubated overnight in 5% CO2-95% air at 37° C. […] Next, this was washed with PBS, and a solution containing 4′,6-diamidino-2-phenylindole that had been diluted with 1% BSA/PBS to have a concentration 10 μg/mL and a fluorescence-labeled (Alexa Fluor 488) anti-rabbit IgG antibody that had been diluted 250-fold was added to it in an amount 50 μL/well, and reacted in a dark place at room temperature for 60 minutes. […]
structure (smiles),measurement,setting,value
"CN1Cc2cc(Nc3ncc4c(=N)n(-c5c(Cl)cccc5Cl)c(=O)[nH]c4n3)ccc2C2(CC2)C1 [Example 1, 3-(2,6-dichlorophenyl)-4-imino-7-[(2′-methyl-2′,3′-dihydro-1′H-spiro[cyclopropane-1,4′-isoquinolin]-7′-yl)amino]-3,4-dihydropyrimido[4,5-d]pyrimidin-2(1H)-one dihydrochloride]",% T/C day 3,[1]; day 3,107%
same,% T/C day 6,[1]; day 6,100%
same,% T/C day 10,[1]; day 10,87%
same,% T/C day 13,[1]; day 13,91%
same,% T/C day 17,[1]; day 17,88%
same,% T/C day 20,[1]; day 20,85%
same,% T/C day 24,[1]; day 24,83%
same,% T/C day 27,[1]; day 27,88%
same,EC50,[2],37 nM
